Results published in publication PMC10518020, “Structure of the peroxisomal Pex1/Pex6 ATPase complex bound to a substrate” (Nature Communications, 2023).

Molecular target: T1, Pex1/Pex6_WB (Pex1-Strep2/His-Pex6(E832Q)) heterohexamer (Saccharomyces cerevisiae, UniProt P24004+P33760, P33760:E832Q)
T1 construct: full-length Pex1 with C-terminal Strep2 tag and Pex6(E832Q, D2 Walker B) with N-terminal His tag, co-expressed in S. cerevisiae MH 272/3f alpha; heterohexamer of alternating Pex1 and Pex6 (trimer of dimers); endogenous peptide trapped in D2 pore
T1 sequence (P24004 1-1043): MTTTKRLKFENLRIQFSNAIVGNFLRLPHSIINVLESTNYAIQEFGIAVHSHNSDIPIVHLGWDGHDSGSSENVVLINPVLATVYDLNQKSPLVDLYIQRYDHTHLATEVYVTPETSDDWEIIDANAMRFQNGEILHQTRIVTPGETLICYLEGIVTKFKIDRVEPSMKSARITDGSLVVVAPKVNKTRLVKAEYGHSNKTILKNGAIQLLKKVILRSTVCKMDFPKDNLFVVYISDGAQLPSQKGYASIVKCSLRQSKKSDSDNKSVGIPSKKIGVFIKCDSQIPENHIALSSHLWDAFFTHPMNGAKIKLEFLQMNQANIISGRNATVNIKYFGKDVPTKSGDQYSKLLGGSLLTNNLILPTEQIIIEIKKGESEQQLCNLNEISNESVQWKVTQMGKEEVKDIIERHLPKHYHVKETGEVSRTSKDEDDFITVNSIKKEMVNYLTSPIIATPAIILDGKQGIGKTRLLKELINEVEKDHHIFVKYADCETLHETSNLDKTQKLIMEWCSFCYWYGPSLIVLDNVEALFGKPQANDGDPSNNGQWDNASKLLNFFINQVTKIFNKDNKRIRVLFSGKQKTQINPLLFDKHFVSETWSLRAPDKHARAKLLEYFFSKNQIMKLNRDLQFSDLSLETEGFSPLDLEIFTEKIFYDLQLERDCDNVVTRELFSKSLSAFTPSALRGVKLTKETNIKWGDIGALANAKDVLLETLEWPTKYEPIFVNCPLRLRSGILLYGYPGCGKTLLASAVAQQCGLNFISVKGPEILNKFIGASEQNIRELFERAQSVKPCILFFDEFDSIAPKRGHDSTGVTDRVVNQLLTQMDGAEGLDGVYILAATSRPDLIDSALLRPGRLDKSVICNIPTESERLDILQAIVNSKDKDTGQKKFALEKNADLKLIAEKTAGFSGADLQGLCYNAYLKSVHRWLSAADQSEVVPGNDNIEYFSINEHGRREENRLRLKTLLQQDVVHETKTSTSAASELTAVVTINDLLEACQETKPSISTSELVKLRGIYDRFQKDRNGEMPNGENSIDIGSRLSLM
T1 sequence (P33760 1-1030 E832Q): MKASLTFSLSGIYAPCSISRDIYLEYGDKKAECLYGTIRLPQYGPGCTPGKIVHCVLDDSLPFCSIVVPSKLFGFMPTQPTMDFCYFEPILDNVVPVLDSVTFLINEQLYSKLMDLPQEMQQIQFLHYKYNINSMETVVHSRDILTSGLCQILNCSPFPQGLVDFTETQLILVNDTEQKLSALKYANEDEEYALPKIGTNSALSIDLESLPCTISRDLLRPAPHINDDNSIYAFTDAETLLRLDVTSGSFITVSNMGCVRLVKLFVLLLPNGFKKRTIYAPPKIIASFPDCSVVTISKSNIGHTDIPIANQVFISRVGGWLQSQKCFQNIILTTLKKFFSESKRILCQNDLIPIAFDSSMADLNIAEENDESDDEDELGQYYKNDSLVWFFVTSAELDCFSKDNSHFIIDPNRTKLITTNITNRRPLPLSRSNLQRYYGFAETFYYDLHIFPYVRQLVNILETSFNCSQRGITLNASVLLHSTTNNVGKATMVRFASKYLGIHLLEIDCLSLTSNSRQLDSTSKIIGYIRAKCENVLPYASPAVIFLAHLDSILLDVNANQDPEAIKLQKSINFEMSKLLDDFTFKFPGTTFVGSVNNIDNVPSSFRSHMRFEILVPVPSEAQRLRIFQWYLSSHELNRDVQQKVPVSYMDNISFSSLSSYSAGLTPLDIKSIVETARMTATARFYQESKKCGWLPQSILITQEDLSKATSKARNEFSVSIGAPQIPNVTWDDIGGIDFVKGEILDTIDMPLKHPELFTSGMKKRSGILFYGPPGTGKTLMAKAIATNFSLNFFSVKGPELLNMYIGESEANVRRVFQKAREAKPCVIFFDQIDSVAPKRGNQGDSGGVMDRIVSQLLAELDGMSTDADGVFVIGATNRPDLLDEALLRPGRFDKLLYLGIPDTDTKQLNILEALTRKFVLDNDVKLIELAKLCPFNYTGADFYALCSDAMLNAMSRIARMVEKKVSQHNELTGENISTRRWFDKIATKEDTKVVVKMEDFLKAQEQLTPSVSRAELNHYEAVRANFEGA
Experiment: cryo-EM structure
Format: binding

Compound	cryo-EM structure (D2 sites of bottom and seam subunits, nucleotide assigned from density and pocket opening, not with absolute confidence, no ADP added (ATP in purification))	cryo-EM structure (Mg2+, 1-3 mM ATP in purification, bound at all six D1 sites (not hydrolysed) and at D2 sites of the substrate-engaged subunits, single-seam 8C0V and twin-seam 8C0W)
Nc1ncnc2c1ncn2[C@@H]1O[C@H](COP(=O)(O)OP(=O)(O)O)[C@@H](O)[C@H]1O [ADP]	D2 domains are indeed in an ADP-bound state	–
Nc1ncnc2c1ncn2[C@@H]1O[C@H](COP(=O)(O)OP(=O)(O)OP(=O)(O)O)[C@@H](O)[C@H]1O [ATP]	–	all ATPase domains of the D1 ring are bound to ATP
